Measurements published in patent US20240350643A1, “PROTEIN DEGRADATION AGENT” (SUZHOU KINTOR PHARMACEUTICALS, INC., priority 2021, published 2024).

Legend:
c-Myc protein = target: T1, c-Myc protein (Homo sapiens, UniProt P01106); assay: Ability of compounds to degrade c-Myc protein in HL60 cells (ELISA); assay type: cell-based; conditions: HL-60, 1 μM compound, 24 h, read-out: HL60 cells Protein degradation rate (1 μM)
T1 construct: endogenous in cells; host or cells: HL60 cells

HL60 cells = assay: Anti-proliferation ability of compounds on HL60 cells (CTG); assay type: cell-based, human; conditions: Homo sapiens, HL-60, 72 h, 3 days, CellTiter-Glo, read-out: HL60 cells Proliferation inhibitory activity
Procedure, shortened: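 Proliferation inhibition IC50 derived from CellTiter-Glo luminescence after 3-day compound treatment of HL60 cells plated at 20000 per well, against 0.1% DMSO controls.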

T1 sequence (P01106 whole entry): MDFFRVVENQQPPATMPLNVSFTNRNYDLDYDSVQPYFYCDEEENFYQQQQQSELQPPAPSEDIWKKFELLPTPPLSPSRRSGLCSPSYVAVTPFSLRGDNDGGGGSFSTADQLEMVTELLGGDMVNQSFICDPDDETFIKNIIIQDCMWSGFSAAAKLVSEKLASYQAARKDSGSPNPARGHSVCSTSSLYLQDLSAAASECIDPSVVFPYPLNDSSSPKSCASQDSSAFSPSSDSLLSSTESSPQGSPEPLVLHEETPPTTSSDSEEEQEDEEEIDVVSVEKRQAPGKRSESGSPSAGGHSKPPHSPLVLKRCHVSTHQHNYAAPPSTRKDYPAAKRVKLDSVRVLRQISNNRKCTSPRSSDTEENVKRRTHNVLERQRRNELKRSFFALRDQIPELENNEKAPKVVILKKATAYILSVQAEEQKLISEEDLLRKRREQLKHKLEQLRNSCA

Row | SMILES | inhibition at 1 µM (c-Myc protein) [%] | IC50 (HL60 cells) [nM]
1 | COCCN(CCn1c2ccccc2c2cccnc21)Cc1ccc(CNC(=O)c2ccc3c(c2)C(=O)N(C2CCC(=O)NC2=O)C3=O)cc1 (stereo not shown) [A91] | 60 to 90 | 12 ± 4.4
2 | N#CCCN(CCn1c2ccccc2c2cccnc21)Cc1ccc(CNC(=O)c2ccc3c(c2)C(=O)N(C2CCC(=O)NC2=O)C3=O)cc1 (stereo not shown) [A93] | 60 to 90 | 171 ± 60.4
3 | O=C1CCC(N2C(=O)c3ccc(C(=O)NCc4ccc(CN(CCc5cccc6ccccc56)c5ccccc5)cc4)cc3C2=O)C(=O)N1 (stereo not shown) [A94] | 60 to 90 | 289 ± 48.3
4 | O=C1CCC(N2C(=O)c3ccc(C(=O)NCc4ccc(CN(CCn5c6ccccc6c6cccnc65)c5ccccc5)cc4)cc3C2=O)C(=O)N1 (stereo not shown) [A95] | 60 to 90 | 43.6 ± 44
5 | O=C1CCC(N2C(=O)c3ccc(C(=O)NCc4ccc(CN(CCc5cccc6ccccc56)Cc5ccccc5)cc4)cc3C2=O)C(=O)N1 (stereo not shown) [A96] | 60 to 90 | 960 ± 121
6 | O=C1CCC(N2C(=O)c3ccc(C(=O)NCc4ccc(CN(CCn5c6ccccc6c6cccnc65)Cc5ccccc5)cc4)cc3C2=O)C(=O)N1 (stereo not shown) [A97] | 60 to 90 | 169 ± 50.7
7 | O=C(Cc1cccc2ccccc12)NCc1ccc(CNC(=O)c2ccc3c(c2)C(=O)N(C2CCC(=O)NC2=O)C3=O)c(F)c1 (stereo not shown) [A103] | 60 to 90 | 5.8 ± 2.5
8 | O=C(Cn1c2ccccc2c2cccnc21)NCc1ccc(CNC(=O)c2ccc3c(c2)C(=O)N(C2CCC(=O)NC2=O)C3=O)c(F)c1 (stereo not shown) [A104] | 60 to 90 | 2.5 ± 0.7
9 | O=C(Cc1cccc2ccccc12)NCc1ccc(CNC(=O)c2ccc3c(c2)C(=O)N(C2CCC(=O)NC2=O)C3=O)cc1F (stereo not shown) [A107] | 60 to 90 | 3.4
10 | O=C(Cn1c2ccccc2c2cccnc21)NCc1ccc(CNC(=O)c2ccc3c(c2)C(=O)N(C2CCC(=O)NC2=O)C3=O)cc1F (stereo not shown) [A108] | 60 to 90 | 2.7 ± 1.8
11 | CN(CCn1c2ccccc2c2cccnc21)Cc1ccc(CNC(=O)c2ccc3c(c2)C(=O)N(C2CCC(=O)NC2=O)C3=O)cc1F (stereo not shown) [A110] | 60 to 90 | 4.4
12 | COc1cc(CNC(=O)Cc2cccc3ccccc23)ccc1CNC(=O)c1ccc2c(c1)C(=O)N(C1CCC(=O)NC1=O)C2=O (stereo not shown) [A111] | 60 to 90 | 57.6 ± 25.9

The remaining lines, values ahead:

Row | inhibition at 1 µM (c-Myc protein) [%] | IC50 (HL60 cells) [nM] | SMILES
13 | 60 to 90 | 21.3 ± 10.9 | CC(C)N(CCc1cccc2ccccc12)Cc1ccc(CNC(=O)c2ccc3c(c2)C(=O)N(C2CCC(=O)NC2=O)C3=O)cc1 (stereo not shown) [A85]
14 | 60 to 90 | 24.4 ± 10.4 | CC(C)N(CCn1c2ccccc2c2cccnc21)Cc1ccc(CNC(=O)c2ccc3c(c2)C(=O)N(C2CCC(=O)NC2=O)C3=O)cc1 (stereo not shown) [A86]
15 | 60 to 90 | 11.5 | CC(C)N(CCc1cccc(Cl)c1Cl)Cc1ccc(CNC(=O)c2ccc3c(c2)C(=O)N(C2CCC(=O)NC2=O)C3=O)cc1 (stereo not shown) [A87]
16 | 60 to 90 | 83.1 | O=C1CCC(N2C(=O)c3ccc(C(=O)NCc4ccc(CN(CCc5cccc6ccccc56)C5CC5)cc4)cc3C2=O)C(=O)N1 (stereo not shown) [A88]
17 | 60 to 90 | 81.1 ± 36.9 | O=C1CCC(N2C(=O)c3ccc(C(=O)NCc4ccc(CN(CCn5c6ccccc6c6cccnc65)C5CC5)cc4)cc3C2=O)C(=O)N1 (stereo not shown) [A89]
18 | 60 to 90 | < 3 | COCCN(CCc1cccc2ccccc12)Cc1ccc(CNC(=O)c2ccc3c(c2)C(=O)N(C2CCC(=O)NC2=O)C3=O)cc1 (stereo not shown) [A90]
19 | 60 to 90 | 440 ± 120 | N#CCCN(CCc1cccc2ccccc12)Cc1ccc(CNC(=O)c2ccc3c(c2)C(=O)N(C2CCC(=O)NC2=O)C3=O)cc1 (stereo not shown) [A92]
20 | 60 to 90 | 11.2 ± 1.3 | CN(CCc1nccc2ccccc12)Cc1ccc(CNC(=O)c2ccc3c(c2)C(=O)N(C2CCC(=O)NC2=O)C3=O)cc1 (stereo not shown) [A98]
21 | 60 to 90 | 19.8 ± 4.8 | CN(CCc1cccc(Cl)c1Cl)Cc1ccc(CNC(=O)c2ccc3c(c2)C(=O)N(C2CCC(=O)NC2=O)C3=O)cc1 (stereo not shown) [A99]
22 | 60 to 90 | 0.9 | CN(CCc1ccc(Cl)cc1Cl)Cc1ccc(CNC(=O)c2ccc3c(c2)C(=O)N(C2CCC(=O)NC2=O)C3=O)cc1 (stereo not shown) [A100]
23 | 60 to 90 | 0.4 | CN(CCc1ccc(Cl)c(Cl)c1)Cc1ccc(CNC(=O)c2ccc3c(c2)C(=O)N(C2CCC(=O)NC2=O)C3=O)cc1 (stereo not shown) [A101]
24 | 60 to 90 | 8.3 ± 1.9 | CN(CCc1cccc2ccccc12)Cc1ccc(CNC(=O)c2ccc3c(c2)C(=O)N(C2CCC(=O)NC2=O)C3=O)c(F)c1 (stereo not shown) [A105]
25 | 60 to 90 | 4.2 | CN(CCn1c2ccccc2c2cccnc21)Cc1ccc(CNC(=O)c2ccc3c(c2)C(=O)N(C2CCC(=O)NC2=O)C3=O)c(F)c1 (stereo not shown) [A106]
26 | 60 to 90 | 5.5 ± 4.2 | CN(CCc1cccc2ccccc12)Cc1ccc(CNC(=O)c2ccc3c(c2)C(=O)N(C2CCC(=O)NC2=O)C3=O)cc1F (stereo not shown) [A109]
